Source: the supplement of paper PMC10307832

Assays:
Experiment in all cases: relative viability (nuclei count vs DMSO), 5 days (fraction); higher = more cells survive
RO-3306 + Bortezomib = compound: C1=CC2=C(C=CC(=C2)C=C3C(=O)NC(=NCC4=CC=CS4)S3)N=C1 [RO-3306] + CC(C)C[C@H](NC(=O)[C@H](Cc1ccccc1)NC(=O)c1cnccn1)B(O)O [Bortezomib] (partner 0.002 µM)
Procedure, shortened: (§1)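 Relative viability was taken as the ratio of nuclei in treated wells to nuclei in vehicle wells. Lung cancer cell lines in 1536-well plates received compounds by pin tool one day after seeding, either one drug alone or a fixed anchor-drug dose plus five library-drug doses (not always all listed) in √10 steps. Nuclei were counted on 4× images after 5 days of treatment, and values are medians of duplicate plates.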

RO-3306 + Tozasertib = compound: C1=CC2=C(C=CC(=C2)C=C3C(=O)NC(=NCC4=CC=CS4)S3)N=C1 [RO-3306] + Cc1cc(Nc2cc(N3CCN(C)CC3)nc(Sc3ccc(NC(=O)C4CC4)cc3)n2)n[nH]1 [Tozasertib] (partner 0.1 µM)
Procedure, shortened: as §1

RO-3306 + Olaparib = compound: C1=CC2=C(C=CC(=C2)C=C3C(=O)NC(=NCC4=CC=CS4)S3)N=C1 [RO-3306] + O=C(c1cc(Cc2n[nH]c(=O)c3ccccc23)ccc1F)N1CCN(C(=O)C2CC2)CC1 [Olaparib] (partner 8 µM)
Procedure, shortened: as §1

[1] = compound: O=S(=O)(c1ccccc1)N(CC(F)(F)F)c1ccc(C(O)(C(F)(F)F)C(F)(F)F)cc1 + COc1cccc2cc(-c3nc([C@H]4CC[C@H](C(=O)O)CC4)n4ncnc(N)c34)[nH]c12 [OSI-027] (partner 0.5 µM)
Procedure, shortened: as §1

Cell Line	relative viability (RO-3306 + Bortezomib; first compound 0.01 µM)	relative viability (RO-3306 + Bortezomib; first compound 0.03162 µM)	relative viability (RO-3306 + Bortezomib; first compound 0.1 µM)	relative viability (RO-3306 + Bortezomib; first compound 0.3162 µM)	relative viability (RO-3306 + Bortezomib; first compound 1 µM)	relative viability (RO-3306 + Tozasertib; first compound 0.01 µM)	relative viability (RO-3306 + Tozasertib; first compound 0.03162 µM)	relative viability (RO-3306 + Tozasertib; first compound 0.1 µM)	relative viability (RO-3306 + Tozasertib; first compound 0.3162 µM)	relative viability (RO-3306 + Tozasertib; first compound 1 µM)	relative viability (RO-3306 + Olaparib; first compound 0.01 µM)	relative viability (RO-3306 + Olaparib; first compound 0.03162 µM)	relative viability (RO-3306 + Olaparib; first compound 0.1 µM)	relative viability (RO-3306 + Olaparib; first compound 0.3162 µM)	relative viability (RO-3306 + Olaparib; first compound 1 µM)	relative viability ([1]; first compound 0.8 µM)	relative viability ([1]; first compound 2.53 µM)	relative viability ([1]; first compound 8 µM)
HCC-15	1.04	0.804	1.01	1.06	0.727	0.438	0.342	0.345	0.383	0.301	0.666	0.628	0.756	0.701	0.693	0.799	0.607	0.623
HCC-44	0.879	0.914	0.926	0.882	0.711	1.17	0.947	0.925	0.873	0.676	1.01	0.958	1	1.01	1.02	–	0.482	0.6
NCI-H2170	–	–	–	–	–	0.689	0.933	0.663	0.804	0.679	0.658	0.589	0.631	0.546	0.509	0.653	0.663	0.685
NCI-H2228	0.937	0.47	0.917	0.893	0.636	0.225	0.219	0.221	0.168	0.223	0.603	0.601	0.645	0.654	0.524	0.542	0.348	0.521
NCI-H727	0.878	0.733	0.84	0.817	0.948	0.706	0.644	0.498	0.613	0.573	0.666	0.722	0.844	0.724	0.621	0.669	0.474	0.631
NCI-H522	–	–	–	–	–	0.545	0.495	0.595	0.567	0.5	0.619	0.561	0.634	0.546	0.608	0.615	0.754	0.903
NCI-H1563	0.921	0.75	0.787	0.939	0.753	–	–	–	–	–	–	–	–	–	–	0.792	0.734	0.854
EPLC-272H	0.735	0.526	0.825	0.769	0.843	0.196	0.288	0.208	0.237	0.249	0.752	0.461	1.22	0.647	0.291	0.301	0.304	0.25
NCI-H1437	0.57	0.346	0.529	0.582	0.484	0.485	0.328	0.384	0.397	0.474	0.628	0.564	0.614	0.588	0.619	0.915	0.811	0.822
CAL-12T	0.956	–	–	0.992	1.09	0.364	0.245	0.303	0.371	0.261	0.808	0.717	0.668	0.777	0.737	0.548	0.554	0.588
SK-LU-1	0.767	0.932	1.08	1.34	0.853	0.266	0.312	0.313	0.321	0.282	0.425	0.415	0.458	0.663	0.425	0.355	0.286	0.358
LCLC-97TM1	1.06	–	0.689	0.455	0.531	0.224	0.22	0.175	0.205	0.172	0.406	0.479	0.315	0.367	0.278	0.614	0.527	0.603
LXF-289	0.992	0.928	1.05	0.95	0.929	0.216	0.199	0.187	0.181	0.199	1.06	0.897	1.06	1.08	0.692	0.877	0.64	0.749
HCC-366	1.05	0.633	1.01	1.16	1.06	0.123	0.0945	0.0992	0.0958	0.0525	0.384	0.281	0.366	0.383	0.393	1.16	0.872	0.729
NCI-H1355	1.5	1.15	1.17	1.18	1.2	0.473	–	0.532	0.515	0.491	0.682	0.659	0.738	0.8	0.786	0.409	0.366	0.453
H3255	0.747	0.707	0.738	0.792	0.677	0.621	0.372	0.611	0.692	0.466	0.608	0.513	0.595	0.558	0.505	0.63	0.597	0.603
ChaGo-K-1	1.01	0.935	0.656	0.756	0.673	0.209	0.234	0.209	0.216	0.234	0.443	0.402	0.41	0.362	0.223	0.687	0.522	0.6
NCI-H2023	1.01	0.795	0.979	1.13	1.07	0.401	0.327	0.254	0.241	0.308	0.469	0.437	0.422	0.463	0.379	0.41	0.279	0.286
NCI-H1299	1.07	1.07	1.04	1.07	1.05	–	–	–	–	–	0.993	0.99	0.988	0.997	0.97	–	–	–
